The results in this text go back to paper PMC4454357 (Archives of biochemistry and biophysics, 2015).

The target in data set [1] is T1, AhR (Rattus norvegicus, UniProt P41738).
T1 sequence (P41738 10-853): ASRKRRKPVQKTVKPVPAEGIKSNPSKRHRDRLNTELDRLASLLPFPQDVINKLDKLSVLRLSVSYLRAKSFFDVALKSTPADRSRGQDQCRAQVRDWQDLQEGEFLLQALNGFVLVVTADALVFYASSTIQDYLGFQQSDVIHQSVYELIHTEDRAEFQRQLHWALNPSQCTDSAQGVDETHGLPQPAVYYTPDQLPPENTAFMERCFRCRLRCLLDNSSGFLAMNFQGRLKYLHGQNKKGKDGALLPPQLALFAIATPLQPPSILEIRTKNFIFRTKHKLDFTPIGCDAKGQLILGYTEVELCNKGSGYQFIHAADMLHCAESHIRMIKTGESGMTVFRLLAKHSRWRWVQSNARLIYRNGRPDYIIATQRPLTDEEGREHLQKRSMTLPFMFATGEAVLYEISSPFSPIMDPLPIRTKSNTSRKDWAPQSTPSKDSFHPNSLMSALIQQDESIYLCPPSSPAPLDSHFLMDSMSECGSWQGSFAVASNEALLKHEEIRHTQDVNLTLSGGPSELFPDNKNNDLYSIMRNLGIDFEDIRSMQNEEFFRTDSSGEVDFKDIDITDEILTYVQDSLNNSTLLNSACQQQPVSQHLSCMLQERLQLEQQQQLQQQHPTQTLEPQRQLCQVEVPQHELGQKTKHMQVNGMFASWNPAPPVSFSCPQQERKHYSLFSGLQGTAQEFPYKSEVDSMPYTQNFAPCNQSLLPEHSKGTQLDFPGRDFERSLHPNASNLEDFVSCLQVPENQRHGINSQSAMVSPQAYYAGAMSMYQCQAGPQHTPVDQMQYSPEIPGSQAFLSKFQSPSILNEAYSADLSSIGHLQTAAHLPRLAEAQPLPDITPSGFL
As to the kind of experiment: AhR-dependent luciferase reporter gene assay, rat hepatoma H4L7.5c2.

The target in data set [2] is T2, AhR (Cavia porcellus, UniProt Q6J287).
T2 sequence (Q6J287 1-846): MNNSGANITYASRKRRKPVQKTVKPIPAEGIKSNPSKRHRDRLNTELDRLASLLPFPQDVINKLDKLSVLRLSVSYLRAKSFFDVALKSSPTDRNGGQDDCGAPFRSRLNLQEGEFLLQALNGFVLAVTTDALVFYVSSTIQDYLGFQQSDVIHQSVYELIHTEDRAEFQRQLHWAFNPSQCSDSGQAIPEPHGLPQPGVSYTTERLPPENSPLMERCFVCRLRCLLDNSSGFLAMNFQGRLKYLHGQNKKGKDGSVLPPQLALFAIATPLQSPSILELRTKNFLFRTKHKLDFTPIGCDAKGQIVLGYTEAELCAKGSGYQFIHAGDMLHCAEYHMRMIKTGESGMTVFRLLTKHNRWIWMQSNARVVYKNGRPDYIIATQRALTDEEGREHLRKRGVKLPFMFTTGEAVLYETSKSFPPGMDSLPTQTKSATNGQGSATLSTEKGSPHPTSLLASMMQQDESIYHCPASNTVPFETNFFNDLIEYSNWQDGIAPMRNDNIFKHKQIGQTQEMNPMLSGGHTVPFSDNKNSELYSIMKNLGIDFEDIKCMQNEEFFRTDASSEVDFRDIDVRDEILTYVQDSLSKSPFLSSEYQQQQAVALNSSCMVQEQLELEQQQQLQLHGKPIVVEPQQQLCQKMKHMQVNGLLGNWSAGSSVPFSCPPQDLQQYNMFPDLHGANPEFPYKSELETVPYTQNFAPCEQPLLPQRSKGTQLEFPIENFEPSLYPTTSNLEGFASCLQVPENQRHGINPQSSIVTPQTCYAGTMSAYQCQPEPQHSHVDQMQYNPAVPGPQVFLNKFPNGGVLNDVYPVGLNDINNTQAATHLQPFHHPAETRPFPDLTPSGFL

The target in data set [3] is T3, AhR (Homo sapiens, UniProt P35869).
T3 sequence (P35869 11-848): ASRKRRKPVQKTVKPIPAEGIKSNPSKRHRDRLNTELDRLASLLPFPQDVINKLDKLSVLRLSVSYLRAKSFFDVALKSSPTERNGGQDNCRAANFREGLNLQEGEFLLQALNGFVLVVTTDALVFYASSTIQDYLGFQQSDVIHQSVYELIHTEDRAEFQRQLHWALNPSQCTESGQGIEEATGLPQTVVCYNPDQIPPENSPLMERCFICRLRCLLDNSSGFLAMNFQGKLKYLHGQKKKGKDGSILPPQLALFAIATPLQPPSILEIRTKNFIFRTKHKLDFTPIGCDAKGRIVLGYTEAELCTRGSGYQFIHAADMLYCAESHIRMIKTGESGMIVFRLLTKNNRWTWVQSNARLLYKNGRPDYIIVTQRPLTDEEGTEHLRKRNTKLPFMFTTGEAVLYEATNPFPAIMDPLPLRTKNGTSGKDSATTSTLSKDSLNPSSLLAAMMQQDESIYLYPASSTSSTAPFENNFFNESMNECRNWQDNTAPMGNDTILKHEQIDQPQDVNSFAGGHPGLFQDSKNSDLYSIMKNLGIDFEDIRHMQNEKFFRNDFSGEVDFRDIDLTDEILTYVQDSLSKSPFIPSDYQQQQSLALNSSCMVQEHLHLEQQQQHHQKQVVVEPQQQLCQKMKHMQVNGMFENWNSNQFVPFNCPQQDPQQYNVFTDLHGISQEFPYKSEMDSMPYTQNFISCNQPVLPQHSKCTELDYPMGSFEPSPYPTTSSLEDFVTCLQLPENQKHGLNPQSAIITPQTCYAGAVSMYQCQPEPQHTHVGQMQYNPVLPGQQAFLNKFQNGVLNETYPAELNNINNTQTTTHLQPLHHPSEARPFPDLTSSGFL

Data set [4] deals with T3, AhR. The data set is described as follows: AhR-dependent luciferase reporter gene assay, human hepatoma HG2L7.5c1. To be noted: for difference in relative potency among the cell lines studied: human, mouse, rat and guinea pig cell lines compared. (In general: Reporter assays use an easily measured gene product as a stand-in for the process of interest.)
Data set [5] has as its target T2, AhR. The source holds these as a separate data set.
Data set [6] concerns the target T1, AhR.
The target in data set [7] is AhR (Mus musculus, UniProt P30561). As to the kind of experiment: AhR-dependent luciferase reporter gene assay, mouse hepatoma H1L7.5c3. The settings on record: mouse cell line.
Data set [8] relates to AhR. The data set is described as above. The settings on record: EC50 mouse versus rat cell lines.
Data set [9] addresses T4, guinea pig hepatic cytosolic AhR (Cavia porcellus, UniProt Q6J287).
T4 sequence (Q6J287 1-846): T2 sequence (Q6J287 1-846)
As to the kind of experiment: [3H]TCDD competitive ligand binding, hydroxyapatite binding assay. To be noted: 2 nM [3H]TCDD, 1 h, room temperature, guinea pig hepatic cytosol.

The mark [10] stands for this setting: read-out: Relative potency (EC50) as activators of AhR-dependent reporter gene expression, Human cell line HG2L7.5c1, 6 h, mean of triplicate concentration response analysis.

A word on the EC50: it is the midpoint of the concentration-response curve.

Like-named read-outs stand apart in the source and are kept apart here.

Chain of AhR (Mus musculus, UniProt P30561) (P30561 10-848): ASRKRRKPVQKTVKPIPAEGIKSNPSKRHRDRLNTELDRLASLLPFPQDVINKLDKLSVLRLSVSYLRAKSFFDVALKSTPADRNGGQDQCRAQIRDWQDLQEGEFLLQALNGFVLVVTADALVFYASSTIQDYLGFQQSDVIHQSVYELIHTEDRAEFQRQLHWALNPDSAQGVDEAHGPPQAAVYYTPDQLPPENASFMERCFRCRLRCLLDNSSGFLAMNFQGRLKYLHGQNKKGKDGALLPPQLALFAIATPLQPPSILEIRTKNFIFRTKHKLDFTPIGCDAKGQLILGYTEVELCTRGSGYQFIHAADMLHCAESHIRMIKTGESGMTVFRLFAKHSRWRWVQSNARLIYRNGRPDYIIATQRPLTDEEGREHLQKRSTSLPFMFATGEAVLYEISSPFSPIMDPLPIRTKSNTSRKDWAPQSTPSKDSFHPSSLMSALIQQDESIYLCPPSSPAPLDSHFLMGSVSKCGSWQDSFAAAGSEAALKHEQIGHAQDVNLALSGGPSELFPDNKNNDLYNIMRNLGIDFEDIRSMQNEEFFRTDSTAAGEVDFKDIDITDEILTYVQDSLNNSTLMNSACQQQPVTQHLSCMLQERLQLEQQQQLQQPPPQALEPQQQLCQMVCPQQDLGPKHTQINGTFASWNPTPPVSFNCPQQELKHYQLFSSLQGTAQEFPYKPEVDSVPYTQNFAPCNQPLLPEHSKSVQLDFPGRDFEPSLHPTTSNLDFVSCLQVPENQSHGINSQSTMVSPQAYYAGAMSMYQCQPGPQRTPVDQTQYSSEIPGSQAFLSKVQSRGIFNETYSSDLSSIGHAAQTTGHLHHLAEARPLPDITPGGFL

On to `O=Cc1c2[nH]c3ccccc3c2cc2[nH]c3ccccc3c12` [FICZ, 6-formyl-indolo[3,2-b]carbazole], for which, at AhR [1], the EC50 was determined as 0.078 nM.
For the molecule `O=C1Nc2ccccc2/C1=C1/Nc2ccccc2C1=O` [Indirubin, indirubin], the EC50 on AhR [1] stood at 0.94 nM; at AhR [2], 0.95 nM.
With `O=Cc1c(Cc2c[nH]c3ccccc23)[nH]c2ccccc12` [Malassezin, malassezin], the EC50 at AhR [3] was determined as 11.1 nM; at AhR [5], 276 nM; on AhR [6], 56 nM. Besides, on AhR [4] (EC50 human versus mouse hepatoma cells), the “relative inducing potency difference between the human and mouse cell lines” value is ~ 26 fold.
For `O=C(c1c[nH]c2ccccc12)c1nccc2c1[nH]c1ccccc12` [Pityriacitrin, pityriacitrin], the results for the EC50 on AhR [3], at AhR [5] and on AhR [6] were 4.9 nM, 4.3 nM and 4.3 nM, respectively. Besides, at AhR [4], the “difference in relative potency among the cell lines studied” value is given as “lowest degree of difference”.
In the case of `Clc1cc2c(cc1Cl)Oc1cc(Cl)c(Cl)cc1O2` [TCDD, 2,3,7,8-tetrachlorodibenzo-p-dioxin, reference compound], the values for the EC50 on AhR [1], on AhR [2] and at AhR [4] were 0.1 nM, 0.1 nM and 0.53 nM, respectively.
On to `O=C1c2ccccc2-n2c1nc1ccccc1c2=O` [Tryptanthrin, tryptanthrin], for which the EC50 on AhR [1] came out at 946 nM; at AhR [2], 181 nM.
As to indolo[3,2-b]carbazole [ICZ], the EC50 at AhR [4] (setting [10]) turned out to be 0.6 nM; on AhR [7], 0.009 nM. For the same molecule, the “difference in EC50 between the mouse and rat cell lines” value in the data set on AhR [8] is ~ 109 fold.
Take pityriazepin: the “difference in relative potency among the cell lines studied” value at AhR [4] is recorded as “lowest degree of difference”. Further, the EC50 on AhR [4] (setting [10]) is 5 nM. In data set [9], the “displacement of [3H]TCDD” value was “displaced [^3H]TCDD from guinea pig hepatic cytosol in a concentration-dependent manner”.
